In US6638974B1, “Ascorbyl esters for the treatment of cancer” (University of South Florida, priority 1999, dated 2003):
Read-outs that look alike come from different tables or passages of the source.

Assays:
CCD 18 cells = assay: MTT cell viability assay, CCD 18; format: cell-based, human; conditions: for inhibition at 150 µM: Homo sapiens, Fibroblast, read-out: inhibitory effect on CCD 18 fibroblasts (MTT); for effect on CCD18 fibroblasts (MTT): similar concentrations and incubation times as As-P (24 and 48 hours)
Procedure: (§1) HT-29, a human colon adenocarcinoma cell line, and CCD 18, a normal colon fibroblast, were obtained from the American Type Culture Collection (Rockville, Md.). The cells were grown in RPM1 1640 medium containing HEPES (20 mM), fetal bovine serum (10%), sodium bicarbonate (1 g/L), and penicillin (10 U/ml), streptomycin (10 ug/ml) at 37° C. in 5% CO2 humidified atmosphere.
(§2) The effect of various concentrations of As-P, ascorbate, palmitate or 5-fluorouracil (5 FU) on the viability and/or proliferation of HT29 or CCD 18 cells were evaluated. Cells were seeded in 96-well culture plates at 1×10^4 cells/well. The following day, As-P, ascorbate, palmitate or 5 FU were added at various concentrations. Cell viability was evaluated by the MTT assay 24 hours or 48 hours after the addition of the compounds. The effect of As-P on the cell cycle of HT29 cells was also investigated by flow cytometry.

Advanced colon cancer = conditions: single agent; cited from earlier work
HT29 cells [1] = assay: MTT cell viability assay, HT29; format: cell-based, human; conditions: for inhibition at 150 µM: Homo sapiens, HT-29, 150 μM (5 FU at a similar concentration), read-out: inhibition of HT29 cell growth (MTT); for effect on HT29 cells (MTT): similar concentrations and incubation times as As-P (24 and 48 hours)
Procedure: as §1, §2

HT29 cells [2] = assay: Cell cycle analysis by flow cytometry, HT29; format: cell-based, human; conditions: 24 hours
Procedure: HT29 cells were seeded into 25 cm^2 flasks at a density of 1×10^4 cells/ml. 72 hours after seeding, As-P was added to HT29 cells in culture at a final concentration of 50 μM, 100 μM, 150 μM. Control cells received medium only. After 24 hours of incubation, cells were harvested and processed for flow cytometry DNA analysis.

Structure (SMILES): O=c1[nH]cc(F)c(=O)[nH]1 [5 FU, 5-Fluorouracil, reference compound]
- effect on growth of CCD 18 fibroblasts at 24 hours (CCD 18 cells; 24 hours): little or no inhibitory effect
- effect on CCD 18 cells at 48 hours (CCD 18 cells; 48 hours): little effect
- response rate (Advanced colon cancer): 10-20%
- effect on growth of HT29 cells at 24 hours (HT29 cells [1]; 24 hours): little or no inhibitory effect
- inhibition of growth of HT29 cells at 48 hours (HT29 cells [1]; 48 hours, concentration not given): approximately 40%
- inhibition at 150 µM (HT29 cells [1]; 24 hours): 14%
- inhibition at 150 µM (HT29 cells [1]; 48 hours): 40%

Structure (SMILES): CCCCCCCCCCCCCCCC(=O)OC[C@H](O)[C@H]1OC(=O)C(O)=C1O [As-P, L-Ascorbyl 6-palmitate]
- inhibition at 150 µM (CCD 18 cells; 24 hours): ~20%
- inhibition at 150 µM (CCD 18 cells; 48 hours): ~20%
- effect on CCD 18 fibroblasts at lower concentrations (CCD 18 cells; lower concentrations): stimulatory effect
- inhibition at 150 µM (HT29 cells [1]; 24 hours): 73%
- inhibition at 150 µM (HT29 cells [1]; 48 hours): 89%
- effect on HT29 cells at higher concentrations (HT29 cells [1]; above 100 μM): cytotoxic effect
- effect on HT29 cell growth at lower concentrations (HT29 cells [1]; below 100 μM): stimulatory effect
- effect on HT29 cell growth (HT29 cells [1]; higher concentrations (>125 μM)): great inhibitory effect
- effect on HT29 cell growth (HT29 cells [1]; lower concentrations (<75 μM)): slight stimulating effect
- % G2 + M (HT29 cells [2]; HT29, 50 μM As-P): 7.8%
- % G4/G1 (HT29 cells [2]; HT29, 50 μM As-P): 57.1%
- % S (HT29 cells [2]; HT29, 50 μM As-P): 35.1%
- % G2 + M (HT29 cells [2]; HT29, 100 μM As-P): 4.3%
- % G4/G1 (HT29 cells [2]; HT29, 100 μM As-P): 73.1%
- % S (HT29 cells [2]; HT29, 100 μM As-P): 22.6%
- % G2 + M (HT29 cells [2]; HT29, 150 μM As-P): 3.2%
- % G4/G1 (HT29 cells [2]; HT29, 150 μM As-P): 86.1%
- % S (HT29 cells [2]; HT29, 150 μM As-P): 10.7%

Structure (SMILES): O=C1O[C@H]([C@@H](O)CO)C(O)=C1O [ascorbate, reference compound]
- effect on CCD18 fibroblasts (MTT) (CCD 18 cells): no inhibitory effect
- effect on HT29 cells (MTT) (HT29 cells [1]): no inhibitory effect

Structure (SMILES): CCCCCCCCCCCCCCCC(=O)O [palmitate, reference compound]
- effect on CCD18 fibroblasts (MTT) (CCD 18 cells): no inhibitory effect
- effect on HT29 cells (MTT) (HT29 cells [1]): no inhibitory effect
